These are literature values, as cited in publication PMC3836577 (Microbial Biotechnology, 2010).

In the series the test system is S. aureus Sa113. As to conditions: literature value for comparison; ref Peschel et al., 2001.

Ends that are not written are not given here.

In the case of “nisin (ITSISLCTPGCKTGALMGCNMKTATCHCSIHVSK; also: lantibiotic thioether rings and dehydrated residues not placed; UniProt P13068 24-57, looked up)”, the “Activity against Sa113 (MIC)” value is 14 µM.
